# Strand notation (5' to 3'): a small letter for the sugar, then the base; units joined by * are phosphorothioate-linked, units joined directly phosphodiester-linked; [ ] holds rarer units or linkages, { } end groups; capitals alone tell only the bases. k = constrained ethyl (cEt); [5mC] = 5-methylcytosine; d = 2'-deoxy (DNA)
# What was measured:
# Yap1 mRNA [1] = experiment: Dose-dependent inhibition of human Yap1 in A-431 cells (Example 8, 10,000 cells per well, RTS4814); type: cell-based; settings: for Yap1 mRNA, % UTC: A-431 cells, 10,000 cells per well; for IC50 / % UTC (Yap1 mRNA): A-431 cells
# Method in brief: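 A-431 cells (10,000/well) dosed with modified oligonucleotides by free uptake; Yap1 mRNA measured ~48 h later with primer-probe set RTS4814, normalized to total RNA (RIBOGREEN). Values are % of untreated control; IC50 from linear regression on log/linear plot.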
# Yap1 mRNA [2] = experiment: Antisense inhibition of human Yap1 in A-431 cells by cEt gapmers, single dose (Example 3, RTS36584); type: cell-based
# Method in brief: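 Human epidermoid A-431 cells take up gapmer (2,000 nM, free uptake, ~48 h); Yap1 transcript is then assayed by qRT-PCR with RiboGreen normalization and reported relative to untreated cells. Gapmers carry cEt-modified wings, phosphorothioate linkages and 5-methylcytosine throughout.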
# [3] = 31.3 nM, free uptake, approximately 48 hours, RTS4814
# [4] = 125.0 nM, free uptake, approximately 48 hours, RTS4814
# [5] = 500.0 nM, free uptake, approximately 48 hours, RTS4814
# [6] = 2000.00 nM, free uptake, approximately 48 hours, RTS4814
# [7] = free uptake, approximately 48 hours, RTS4814, linear regression on log/linear plot
# [8] = Table 28, Yap1 mRNA as percent of untreated control, 3-10-3 cEt gapmers targeting SEQ ID NO.: 1, and 2
# [9] = Table 35, Yap1 mRNA as percent of untreated control, 3-10-3 cEt gapmers targeting SEQ ID NO: 1 and 2, single dose
# [10] = Table 27, Yap1 mRNA by 3-10-3 cEt gapmers targeting SEQ ID NO.: 1, and 2, percent of untreated control
# [11] = Table 29, Yap1 mRNA as percent of untreated control, 3-10-3 cEt gapmers targeting SEQ ID NO.: 1, and 2
# [12] = Table 26, Yap1 mRNA by 3-10-3 cEt gapmers targeting SEQ ID NO.: 1, and 2, percent of untreated control
# [13] = Table 34, Yap1 mRNA as percent of untreated control, 3-10-3 cEt gapmers targeting SEQ ID NO: 1 and 2, single dose
Substance,"Yap1 mRNA, % UTC (Yap1 mRNA [1]; [3]) [% UTC]","Yap1 mRNA, % UTC (Yap1 mRNA [1]; [4]) [% UTC]","Yap1 mRNA, % UTC (Yap1 mRNA [1]; [5]) [% UTC]","Yap1 mRNA, % UTC (Yap1 mRNA [1]; [6]) [% UTC]",IC50 (Yap1 mRNA [1]; [7]) [nM],YAP1 (% UTC) (Yap1 mRNA [2]; [8]),% UTC (Yap1 mRNA) (Yap1 mRNA [1]; 31.3 nM) [% UTC],% UTC (Yap1 mRNA) (Yap1 mRNA [1]; 125.0 nM) [% UTC],% UTC (Yap1 mRNA) (Yap1 mRNA [1]; 500.0 nM) [% UTC],% UTC (Yap1 mRNA) (Yap1 mRNA [1]; 2000.00 nM) [% UTC],IC50 (Yap1 mRNA [1]; Yap1 mRNA) [nM],YAP1 (% UTC) (Yap1 mRNA [2]; [9]),YAP1 (% UTC) (Yap1 mRNA [2]; [10]),YAP1 (% UTC) (Yap1 mRNA [2]; [11]),YAP1 (% UTC) (Yap1 mRNA [2]; [12]),YAP1 (% UTC) (Yap1 mRNA [2]; [13])
1075118 (k[5mC]*kT*kA*dT*dT*dT*dA*d[5mC]*dT*d[5mC]*dT*dG*dT*k[5mC]*kA*k[5mC]; antisense) [compound 1075118],85,36,8,4,100,4,–,–,–,–,–,–,–,–,–,–
1075246 (kG*kA*kT*dA*dA*d[5mC]*dT*dA*dG*dT*dA*dA*d[5mC]*k[5mC]*kG*kT; antisense) [compound 1075246],70,34,12,6,100,6,–,–,–,–,–,–,–,–,–,–
1075701 (kA*kA*kT*dT*dA*d[5mC]*dT*dA*dG*dA*dG*dG*d[5mC]*kT*kT*k[5mC]; antisense) [compound 1075701],–,–,–,–,–,–,84,34,11,6,100,3,–,–,–,–
1075757 (k[5mC]*kT*kT*dA*dA*dT*dA*d[5mC]*dA*dT*dT*dA*dT*kT*k[5mC]*k[5mC]; antisense) [compound 1075757],43,14,5,2,< 20,–,–,–,–,–,–,–,2,–,–,–
1075797 (kG*kA*kT*dA*dA*dT*d[5mC]*dA*dT*dG*dA*dT*dA*k[5mC]*kT*k[5mC]; antisense) [compound 1075797],–,–,–,–,–,–,43,11,4,3,< 20,3,–,–,–,–
1075855 (antisense kG*kA*kT*dT*dT*dT*dT*dA*dG*dG*d[5mC]*dA*dG*kA*k[5mC]*kG) [compound 1075855],65,30,12,8,100,–,–,–,–,–,–,–,–,7,–,–
1075893 (antisense k[5mC]*kG*kT*dG*dA*dA*dA*dA*dA*dG*dA*dT*dG*kT*kG*kG) [compound 1075893],–,–,–,–,–,–,80,29,11,8,100,7,–,–,–,–
1075916 (antisense k[5mC]*kA*kA*dT*dT*dT*dA*dG*dG*dA*dT*dG*d[5mC]*k[5mC]*kT*kT) [compound 1075916],73,34,14,8,100,–,–,–,–,–,–,–,–,–,6,–
1075983 (kA*kT*k[5mC]*dG*dA*dA*dA*dA*dG*d[5mC]*dA*dA*dA*k[5mC]*kT*k[5mC]; antisense) [compound 1075983],81,46,17,6,100,–,–,–,–,–,–,–,–,5,–,–
1076015 (kA*kT*kT*dT*dA*dG*dT*dT*dG*dG*dT*dT*dG*kT*kT*kA; antisense) [compound 1076015],70,37,15,9,100,–,–,–,–,–,–,–,–,8,–,–
1076077 (kG*kG*kA*dT*dT*dA*dA*dA*dG*dT*dT*dT*dT*k[5mC]*kA*k[5mC]; antisense) [compound 1076077],53,19,9,5,< 20,–,–,–,–,–,–,–,5,–,–,–
1076084 (k[5mC]*kA*kT*d[5mC]*dA*dA*dT*dA*dG*dA*dG*dA*dG*kT*k[5mC]*kG; antisense) [compound 1076084],–,–,–,–,–,–,69,34,12,8,100,–,–,–,–,7
1076085 (kA*k[5mC]*kT*dA*dA*dT*dA*dG*dG*d[5mC]*d[5mC]*dA*dT*k[5mC]*kT*kG; antisense) [compound 1076085],–,–,–,–,–,–,70,34,14,9,100,7,–,–,–,–
1076143 (kG*kA*kT*dA*d[5mC]*dG*dA*dA*dA*dA*dA*dA*dG*k[5mC]*k[5mC]*kA; antisense) [compound 1076143],81,48,20,9,100,–,–,–,–,–,–,–,–,8,–,–
1076174 (kG*kA*kT*dA*dT*dA*dT*dG*dG*dT*dA*dG*d[5mC]*kA*kT*kA; antisense) [compound 1076174],58,21,7,4,< 20,3,–,–,–,–,–,–,–,–,–,–
1076340 (antisense kT*kA*kA*dT*dA*dT*d[5mC]*d[5mC]*dT*d[5mC]*dA*dT*d[5mC]*kA*kG*k[5mC]) [compound 1076340],–,–,–,–,–,–,79,42,17,11,100,–,–,–,–,8
1076366 (antisense kA*kT*kT*dT*dA*d[5mC]*dA*dT*dG*dA*dG*dA*dG*kG*kA*kG) [compound 1076366],63,25,8,4,40,4,–,–,–,–,–,–,–,–,–,–
1076367 (antisense k[5mC]*kT*kA*dT*dT*dT*dA*d[5mC]*dA*dT*dG*dA*dG*kA*kG*kG) [compound 1076367],31,10,4,3,< 20,–,–,–,–,–,–,–,–,3,–,–
1076396 (antisense k[5mC]*kT*kA*dT*dA*dT*dT*dT*dG*dA*dG*d[5mC]*d[5mC]*kA*kT*kG) [compound 1076396],64,22,5,3,40,–,–,–,–,–,–,–,–,–,2,–
1076397 (antisense kA*kA*k[5mC]*d[5mC]*dT*dA*dT*dA*dT*dT*dT*dG*dA*kG*k[5mC]*k[5mC]) [compound 1076397],43,14,5,4,< 20,–,–,–,–,–,–,–,4,–,–,–

# From US11214803B2, “Modulators of YAP1 expression” (Ionis Pharmaceuticals, Inc., priority 2019, dated 2022)
